We go through three compounds from patent US6995262B1, “Use of acylsulfonamido-substituted polymethine dyes as fluorescene dyes and/or markers” (Bayer CropScience AG, priority 1999, dated 2006).

Structures are written as SMILES. Marks after values point to notes of the source that are not given here.

Holding throughout (format): physicochemical
Series [1] in a line: Photostability: dye solutions exposed to daylight, reduction of absorption over time. As to conditions: after 30 min, starting absorption 1.4 to 1.6 O.D. The procedure:
The photostability was determined by exposing dye solutions to daylight. The absorption of the solutions varied between 1.4 and 1.6 O.D. The reduction of the absorption over time is a measure for the photostability of the dyes. These conditions were chosen since the handling of the dyes, too, includes manual process steps during which the dyes are exposed to daylight. In the case of CY5, it is clearly noticeable that, even after 30 min, the absorption has decreased by 12%. This is not the case for the dyes according to the invention, and the latter are thus also more user-friendly, by maintaining a stable absorption.

Series [2] is described as follows: Aggregate formation: ratio of absorption maxima of monomer and aggregate at increasing salt concentration. As to conditions: for characteristics with respect to aggregate formation: with increasing salt concentration. The source says: The intensity of the absorption in the absorption maximum of the monomer is a relative measure for the concentration of the monomer in the solution, the same also applies to the concentration of the aggregate, this can be correlated to the intensity of the absorption in the absorption maximum of the aggregate, which is shifted hypsochronically compared to the monomer. […] The increasing salt concentration causes an aggregate formation.

The nature of series [3]: Extinction coefficient determined assuming Beer's law. As to conditions: Beer's law assumed. The procedure: Determination of the Extinction Coefficient The extinction coefficient was determined assuming that Beer's law applies.
Series [4] is described as follows: Relative quantum yield of dye-protein conjugates, determined relative to Cy5. As to conditions: protein conjugates at similar molar dye/protein ratios, protein HSA. The protocol:
The protein used was HSA (Human Serum Albumin).
Determination of the Quantum Yield
The quantum yield was determined relative to Cy5
For labeling, the crude product (1 aliquot) is dissolved in 1 ml of DMF. 50 μl of this solution are pipetted to 1.5 mL (=1 mg) of anti-HSA solution in carbonate buffer pH 9.2. The reaction solution is stirred at RT under the exclusion of light for 2 hours.
Using gel permeation chromatography over a Sephadex G25 column, the conjugate is then separated from unbound dye. The elution buffer used is PBS, pH 7.4.
Protein conjugates of other dyes, which are listed in Table 1, were prepared in an analogous manner.

In series [1], `CCN1/C(=C/C=C/C=C/C2=[N+](CCCCCC(=O)O)c3ccc(S(=O)(=O)O)cc3C2(C)C)C(C)(C)c2cc(S(=O)(=O)[O-])ccc21` [CY5, reference compound] gave a decrease of absorption of 12%. The values for the Absorption monomer/absorption dimer in series [2] (2.0 M NaCl), in series [2] (3.8 M NaCl) and in series [2] (Water) were 3.18, 3.19 and 3.12, respectively.
On to `CC1(C)C(/C=C2\C(=O)C(/C=C3/N(CCCCCC(=O)O)c4ccccc4C3(C)C)=C2O)=[N+](CC(=O)NS(C)(=O)=O)c2ccc(S(=O)(=O)[O-])cc21` [F], for which the figures for the Absorption monomer/absorption dimer in series [2] (2.0 M NaCl), in series [2] (3.8 M NaCl) and in series [2] (Water) were 2.81, 2.81 and 2.89, respectively. Further, in series [2] (in words), the “characteristics with respect to aggregate formation” value is on record as “stable characteristics”. For the same compound, the Extinction coefficient in series [3] is reported as 420 000 mol-1*cm^2*. Further, in series [4], the “rel. Q.Y.” value is listed as 1.35.
Take `CC1(C)C(/C=C2\C(=O)C(/C=C3/N(CCCCCC(=O)O)c4ccc(S(=O)(=O)[O-])cc4C3(C)C)=C2O)=[N+](CC(=O)NS(C)(=O)=O)c2ccc(S(=O)(=O)O)cc21` [J]: the values for the Absorption monomer/absorption dimer in series [2] (2.0 M NaCl), in series [2] (3.8 M NaCl) and in series [2] (Water) were 4.35, 4.40 and 4.40, respectively. For the same compound, in series [2] (in words, from Table 2), the “aggregate formation compared to CY5” value is given as “considerably lower aggregate formation”. Further, in series [2] (in words), the “characteristics with respect to aggregate formation” value is listed as “stable characteristics”. For the same compound, the Extinction coefficient in series [3] is 240 000 mol-1*cm^2*. The “rel. Q.Y.” value in series [4] stood at 1.36.
